Where two headings read alike, the source gives them in different places.

What is called IC50 is the point on the concentration scale where inhibition reaches its midpoint.

In data set [1] the target is PD-1-Ig binding to PD-L1-TVMV-His (PD-L1-His) (Homo sapiens (Human), UniProt Q9NZQ7). As to the kind of experiment: PD-1/PD-L1 Homogenous Time-Resolved Fluorescence (HTRF) binding assay. The note with it: PD-1-Ig/PD-L1-His binding, read-out: HTRF IC50 (μM) or Range. The source says:
The ability of the macrocyclic peptides of the present disclosure to bind to PD-L1 was investigated using a PD-1/PD-L1 Homogenous Time-Resolved Fluorescence (HTRF) binding assay.
Homogenous Time-Resolved Fluorescence (HTRF) Assays of Binding of Soluble PD-1 to Soluble PD-L1. Soluble PD-1 and soluble PD-L1 refers to proteins with carboxyl-end truncations that remove the transmembrane-spanning regions and are fused to heterologous sequences, specifically the Fc portion of the human immunoglobuling G sequence (Ig) or the hexahistidine epitope tag (His). All binding studies were performed in an HTRF assay buffer consisting of dPBS supplemented with 0.1% (w/v) bovine serum albumin and 0.05% (v/v) Tween-20. For the PD-1-Ig/PD-L1-His binding assay, inhibitors were pre-incubated with PD-L1-His (10 nM final) for 15m in 4 μl of assay buffer, followed by addition of PD-1-Ig (20 nM final) in 1 μl of assay buffer and further incubation for 15 m. PD-L1 fusion proteins from either human, cynomologous macaques, mouse, or other species were used. HTRF detection was achieved using europium crypate-labeled anti-Ig monoclonal antibody (1 nM final) and allophycocyanin (APC) labeled anti-His monoclonal antibody (20 nM final). Antibodies were diluted in HTRF detection buffer and 5 μl was dispensed on top of binding reaction. The reaction was allowed to equilibrate for 30 minutes and signal (665 nm/620 nm ratio) was obtained using an EnVision fluorometer. Additional binding assays were established between PD-1-Ig/PD-L2-His (20 and 5 nM, respectively), CD8O-His/PD-L1-Ig (100 and 10 nM, respectively) and CD80-His/CTLA4-Ig (10 and 5 nM, respectively). Binding/competition studies between biotinylated Compound No. 71 and human PD-L1-His were performed as follows. Macrocyclic peptide inhibitors were pre-incubated with PD-L1-His (10 nM final) for 60 minutes in 4 μl of assay buffer followed by addition of biotinylated Compound No. 71 (0.5 nM final) in 1 μl of assay buffer. Binding was allowed to equilibrate for 30 minutes followed by addition of europium crypated labeled Streptavidin (2.5 pM final) and APC-labeled anti-His (20 nM final) in 5 μl of HTRF buffer. The reaction was allowed to equilibrate for 30 m and signal (665 nm/620 nm ratio) was obtained using an EnVision fluorometer.
Recombinant Proteins. Carboxyl-truncated human PD-1 (amino acids 25-167) with a C-terminal human Ig epitope tag [hPD-1 (25-167)-35-IG] and human PD-L1 (amino acids 18-239) with a C-terminal His epitope tag [hPD-L1(19-239)-tobacco vein mottling virus protease cleavage site (TVMV)-His] were expressed in HEK293T cells and purified sequentially by recombinant Protein A affinity chromatography and size exclusion chromatography. Human PD-L2-His (Sino Biologicals), CD80-His (Sino Biologicals), CTLA4-Ig (RnD Systems) were all obtained through commercial sources.

The conditions of data set [2]: oral formulation ENTOCORT EC, extensive first-pass metabolism; cited from earlier work.

Sequence of PD-1-Ig binding to PD-L1-TVMV-His (PD-L1-His) (Q9NZQ7 other isoform, or with tags, fused parts or gaps): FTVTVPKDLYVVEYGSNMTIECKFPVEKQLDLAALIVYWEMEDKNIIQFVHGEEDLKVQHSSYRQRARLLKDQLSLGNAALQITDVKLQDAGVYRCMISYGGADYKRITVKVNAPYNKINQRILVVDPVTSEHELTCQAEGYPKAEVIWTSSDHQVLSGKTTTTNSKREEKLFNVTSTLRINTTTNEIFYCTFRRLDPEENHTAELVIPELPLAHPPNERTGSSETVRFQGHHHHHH

In the case of `C[C@@H]1NC(=O)[C@@H]2CCCC/C=C\CCCC[C@@H](C(=O)N2C)N(C)C(=O)[C@H](Cc2c[nH]c3ccccc23)NC(=O)[C@H](CO)NC(=O)[C@H](Cc2c[nH]c3ccccc23)NC(=O)[C@@H]2C[C@@H](O)CN2C(=O)[C@H](CCC(N)=O)NC(=O)[C@H](Cc2cnc[nH]2)NC(=O)[C@@H]2CCCN2C(=O)[C@H](CC(=O)O)NC(=O)[C@H](C)N(C)C(=O)[C@H](Cc2ccc(O)cc2)NC(=O)CSC[C@@H](C(=O)NCC(N)=O)NC1=O` [Example 1113], the IC50 in data set [1] (value given as range class) lay in the range of 0.002 to 0.0099 µM. As to `C[C@@H]1NC(=O)[C@@H]2CCCC/C=C\CCCC[C@@H](C(=O)N2C)N(C)C(=O)[C@H](Cc2c[nH]c3ccccc23)NC(=O)[C@H](CO)NC(=O)[C@H](Cc2c[nH]c3ccccc23)NC(=O)[C@@H]2C[C@@H](O)CN2C(=O)[C@H](CCC(N)=O)NC(=O)[C@H](Cc2cnc[nH]2)NC(=O)[C@@H]2CCCN2C(=O)[C@H](CC(=O)O)NC(=O)[C@@H]2CNCCN2C(=O)[C@H](Cc2ccc(O)cc2)NC(=O)CSC[C@@H](C(=O)NCC(N)=O)NC1=O` [Example 1115], in data set [1] (numeric value), the IC50 was 0.011 µM. As to `C[C@H]1C(=O)N[C@@H](CC(=O)O)C(=O)N2CCC[C@H]2C(=O)N[C@@H](CN)C(=O)N[C@@H](CCC(=O)O)C(=O)N2C[C@H](O)C[C@H]2C(=O)N[C@@H](Cc2c[nH]c3ccccc23)C(=O)N[C@@H](CO)C(=O)N[C@@H](Cc2c[nH]c3ccccc23)C(=O)N(C)[C@H]2CCC/C=C\CCCC[C@@H](C(=O)N[C@@H](CCC(=O)O)C(=O)N[C@H](C(=O)NCC(N)=O)CSCC(=O)N[C@@H](Cc3ccc(O)cc3)C(=O)N1C)N(C)C2=O` [Example 1116], the 50% inhibitory concentration (IC50) in data set [1] (value given as range class) fell in the range of 0.01 to 0.099 µM. Same read-out and setting: the figure for `C[C@H]1C(=O)N[C@@H](CC(=O)O)C(=O)N2CCC[C@H]2C(=O)N[C@@H](CN)C(=O)N[C@@H](CCC(=O)O)C(=O)N2C[C@H](O)C[C@H]2C(=O)N[C@@H](Cc2c[nH]c3ccccc23)C(=O)N[C@@H](CO)C(=O)N[C@@H](Cc2cn(CC(=O)O)c3ccccc23)C(=O)N(C)[C@H]2CCCC/C=C\CCCC[C@@H](C(=O)N[C@@H](CCC(=O)O)C(=O)N[C@H](C(=O)NCC(N)=O)CSCC(=O)N[C@@H](Cc3ccc(O)cc3)C(=O)N1C)N(C)C2=O` [Example 1117] is 0.002 to 0.0099 µM; for `C[C@H]1C(=O)N[C@@H](CC(=O)O)C(=O)N2CCC[C@H]2C(=O)N[C@@H](CN)C(=O)N[C@@H](CCC(=O)O)C(=O)N2C[C@H](O)C[C@H]2C(=O)N[C@@H](Cc2c[nH]c3ccccc23)C(=O)N[C@@H](CO)C(=O)N[C@@H](Cc2csc3ccccc23)C(=O)N(C)[C@H]2CCCC/C=C\CCCC[C@@H](C(=O)N[C@@H](CN)C(=O)N[C@H](C(=O)NCC(N)=O)CSCC(=O)N[C@@H](Cc3ccc(O)cc3)C(=O)N1C)N(C)C2=O` [Example 1118] it is 0.002 to 0.0099 µM. `CN1C(=O)[C@H](Cc2csc3ccccc23)NC(=O)[C@H](CO)NC(=O)[C@H](Cc2c[nH]c3ccccc23)NC(=O)[C@@H]2C[C@@H](O)CN2C(=O)[C@H](CCC(N)=O)NC(=O)[C@H](CN)NC(=O)[C@@H]2CCCN2C(=O)[C@H](CC(=O)O)NC(=O)[C@@H]2CCCCN2C(=O)[C@H](Cc2ccc(O)cc2)NC(=O)CSC[C@@H](C(=O)NCC(N)=O)NC(=O)[C@H](CN)NC(=O)[C@@H]2CCCC/C=C\CCCC[C@H]1C(=O)N2C` [Example 1119]: the IC50 in data set [1] (value given as range class) fell in the range of 0.002 to 0.0099 µM. `C[C@@H]1NC(=O)[C@@H]2CCCC/C=C\CCCC[C@@H](C(=O)N2C)N(C)C(=O)[C@H](Cc2c[nH]c3ccccc23)NC(=O)[C@H](CO)NC(=O)[C@H](Cc2c[nH]c3ccccc23)NC(=O)[C@@H]2C[C@@H](O)CN2C(=O)[C@H](CCC(N)=O)NC(=O)[C@H](Cc2cnc[nH]2)NC(=O)[C@@H]2CCCN2C(=O)[C@H](CC(=O)O)NC(=O)[C@@H]2CCCCN2C(=O)[C@H](Cc2ccc(O)cc2)NC(=O)CSC[C@@H](C(=O)NCC(N)=O)NC1=O` [Example 1120]: the IC50 in data set [1] (numeric value) stood at 0.004 µM.

In the case of `CN1C(=O)[C@H](Cc2cn(CC(=O)O)c3ccccc23)NC(=O)[C@H](CCN)NC(=O)[C@H](Cc2c[nH]c3ccccc23)NC(=O)[C@@H]2C[C@@H](O)CN2C(=O)[C@H](CCC(=O)O)NC(=O)[C@H](CN)NC(=O)[C@@H]2CCCN2C(=O)[C@H](CC(=O)O)NC(=O)[C@H]2CCCCN2C(=O)[C@H](Cc2ccc(O)cc2)NC(=O)CSC[C@@H](C(=O)NCC(N)=O)NC(=O)[C@H](CCC(=O)O)NC(=O)[C@@H]2Cc3ccc(cc3)OCC=CCCC[C@H]1C(=O)N2C` [Example 1121], the IC50 in data set [1] (value given as range class) was in the range of 0.01 to 0.099 µM. The same measure, in the same setting: the same measure for `C[C@H]1C(=O)N[C@@H](CC(=O)O)C(=O)N2CCC[C@H]2C(=O)N[C@@H](CN)C(=O)N[C@@H](CCC(=O)O)C(=O)N2C[C@H](O)C[C@H]2C(=O)N[C@@H](Cc2c[nH]c3ccccc23)C(=O)N[C@@H](CCN)C(=O)N[C@@H](Cc2cn(CC(=O)O)c3ccccc23)C(=O)N(C)C2CCCCC/C=C\CCCC[C@@H](C(=O)N[C@@H](CCC(=O)O)C(=O)N[C@H](C(=O)NCC(N)=O)CSCC(=O)N[C@@H](Cc3ccc(O)cc3)C(=O)N1C)N(C)C2=O` [Example 1122]: 0.002 to 0.0099 µM. Take `CCCC1O[C@@H]2C[C@H]3[C@@H]4CCC5=CC(=O)C=C[C@]5(C)[C@H]4[C@@H](O)C[C@]3(C)[C@]2(C(=O)CO)O1` (stereo partly shown) [budesonide]: the bioavailability result in data set [2] is on record as “about 10%”.

Source of the values: US11492375B2, “Cyclic peptide immunomodulators” (Bristol-Myers Squibb Company, priority 2017, dated 2022).
